Source: patent US8399511B2, “Two types of crystalline of pinocembrin, their preparation and their use for manufacture of pharmaceutical compositions” (CSPC Zhongqi Pharmaceutical Technology (Shijiazhuang) Co., …, priority 2008, dated 2013)

Test: In vivo absorption and blood concentration after oral administration of pinocembrin crystalline forms
Parameters: species or system SD rats
Settings: for Blood concentration of pinocembrin: fasted SD rats, arterial blood, HPLC, group average, 50 mg/kg
Experimental: • 1. Monocrystal X-ray analysis • Instrument: MAC DIP-2030K area detector • Test condition: tube voltage: 50 KV, tube flow: 80 mA, ω scanning, MoKα, 2θ≦50.0°, scan range: 0-180°, pivot angle: 6°, step: 6°, scan rate: 1.8°/min. • 2. Powder X-ray analysis • Instrument: Rigaku D/max 2550 powder X-ray diffractometer • Test conditions: voltage: 40 KV, current: 150 mA, scan rate: 8°/min. • 3. DSC analysis • Instrument type: Seiko Instruments Inc. Differential Scanning Calorimeter • Test conditions: purge gas: N2, heating rate: 10° C. /min. • Temperature range: 25-250° C. • 4. IR absorbance spectra • Instrument Nicolet FT-IR spectrometer: IMPACT 400 • Test conditions: KBr pellet • 5. HPCL analysis • Instrument: SHIMADZU LC-10Avp high performance liquid chromatography, SPD-M10Avp diode array detector, CLASS-VP chromatography data system; column: Alltch C18(5μ, 150×4.6 mm); test conditions: column temperature: room temperature; wavelength: 290 nm; mobile phase: methanol/phosphate saline pH 3.0 (64/36); flow rate : 1.0 mL/min; injection volume: 20 μL; injection concentration: 500.0 μg/mL Preparation 1: Synthesis of Pinocembrin Sample
18 of SD rats, female and male each half, with body weight of 230˜250 g, were randomized into 3 groups, with 6 rats each group and female half. After 10 hours of fasting but free water intake, the rats were administrated with pinocembrin solid active ingredient powder of α, β or 1:1 (α+β) mixed crystalline forms, at a dose of 50 mg/kg to stomach. Then the arterial blood samples at different times were taken and the contents of pinocembrin were determined.

[1] = 10 min after oral (to stomach) 50 mg/kg solid powder
[2] = 20 min after oral (to stomach) 50 mg/kg solid powder
[3] = 30 min after oral (to stomach) 50 mg/kg solid powder
[4] = 40 min after oral (to stomach) 50 mg/kg solid powder

Row | Blood concentration of pinocembrin [1] [peak area value] | Blood concentration of pinocembrin [2] [peak area value] | Blood concentration of pinocembrin [3] [peak area value] | Blood concentration of pinocembrin [4] [peak area value] | Blood concentration compared with β crystalline form (same dosage (50 mg/kg) by oral administration, rats) | Blood concentration of pinocembrin (10 min after oral (to stomach) 50 mg/kg solid powder, listed as β crystalline from) [peak area value] | Blood concentration of pinocembrin (20 min after oral (to stomach) 50 mg/kg solid powder, listed as β crystalline from) [peak area value] | Blood concentration of pinocembrin (30 min after oral (to stomach) 50 mg/kg solid powder, listed as β crystalline from) [peak area value] | Blood concentration of pinocembrin (40 min after oral (to stomach) 50 mg/kg solid powder, listed as β crystalline from) [peak area value] | Uptake rate by organism relative to α crystalline form (rat, in vivo) [times] | Structure (SMILES)
1 | 8.5 | 15.6 | 7.9 | 7.1 | – | – | – | – | – | – | O=C1C[C@@H](c2ccccc2)Oc2cc(O)cc(O)c21 (stereo in doubt) [1:1 (α + β) crystalline forms, 5,7-dihydroxy-2-phenyl-4-chromanone]
2 | 3.8 | 9.7 | 4.4 | 3.5 | obviously lower | – | – | – | – | – | O=C1C[C@@H](c2ccccc2)Oc2cc(O)cc(O)c21 (stereo in doubt) [α crystalline form, 5,7-dihydroxy-2-phenyl-4-chromanone]
3 | – | – | – | – | – | 13.2 | 48.6 | 14.6 | 14.2 | ≥ 2 | O=C1C[C@@H](c2ccccc2)Oc2cc(O)cc(O)c21 (stereo in doubt) [β crystalline form, 5,7-dihydroxy-2-phenyl-4-chromanone]
